Legend:
LRRK2 G2019S = biological target: T1, LRRK2 G2019S (Homo sapiens, UniProt Q5S007, G2019S); assay: LRRK2 Kinase Activity Assay (LanthaScreen TR-FRET), G2019S; type: biochemical; conditions: recombinant G2019S-LRRK2, 25 μM ATP, 400 nM LRRKtide, 60 min; class symbols
T1 construct: purchased Life Technologies PV4881
Method in brief: (§1)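 Recombinant wild-type or G2019S LRRK2 incubated with fluorescein-labeled LRRKtide (ERM-based) peptide, ATP and serially diluted compound for 60 min at room temperature.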

LRRK2 WT = biological target: T2, LRRK2 WT (Homo sapiens, UniProt Q5S007); assay: LRRK2 Kinase Activity Assay (LanthaScreen TR-FRET), wild type; type: biochemical; conditions: recombinant wild type LRRK2, 25 μM ATP, 400 nM LRRKtide, 60 min
T2 construct: purchased Life Technologies PR8604B
T2 sequence (Q5S007 whole entry): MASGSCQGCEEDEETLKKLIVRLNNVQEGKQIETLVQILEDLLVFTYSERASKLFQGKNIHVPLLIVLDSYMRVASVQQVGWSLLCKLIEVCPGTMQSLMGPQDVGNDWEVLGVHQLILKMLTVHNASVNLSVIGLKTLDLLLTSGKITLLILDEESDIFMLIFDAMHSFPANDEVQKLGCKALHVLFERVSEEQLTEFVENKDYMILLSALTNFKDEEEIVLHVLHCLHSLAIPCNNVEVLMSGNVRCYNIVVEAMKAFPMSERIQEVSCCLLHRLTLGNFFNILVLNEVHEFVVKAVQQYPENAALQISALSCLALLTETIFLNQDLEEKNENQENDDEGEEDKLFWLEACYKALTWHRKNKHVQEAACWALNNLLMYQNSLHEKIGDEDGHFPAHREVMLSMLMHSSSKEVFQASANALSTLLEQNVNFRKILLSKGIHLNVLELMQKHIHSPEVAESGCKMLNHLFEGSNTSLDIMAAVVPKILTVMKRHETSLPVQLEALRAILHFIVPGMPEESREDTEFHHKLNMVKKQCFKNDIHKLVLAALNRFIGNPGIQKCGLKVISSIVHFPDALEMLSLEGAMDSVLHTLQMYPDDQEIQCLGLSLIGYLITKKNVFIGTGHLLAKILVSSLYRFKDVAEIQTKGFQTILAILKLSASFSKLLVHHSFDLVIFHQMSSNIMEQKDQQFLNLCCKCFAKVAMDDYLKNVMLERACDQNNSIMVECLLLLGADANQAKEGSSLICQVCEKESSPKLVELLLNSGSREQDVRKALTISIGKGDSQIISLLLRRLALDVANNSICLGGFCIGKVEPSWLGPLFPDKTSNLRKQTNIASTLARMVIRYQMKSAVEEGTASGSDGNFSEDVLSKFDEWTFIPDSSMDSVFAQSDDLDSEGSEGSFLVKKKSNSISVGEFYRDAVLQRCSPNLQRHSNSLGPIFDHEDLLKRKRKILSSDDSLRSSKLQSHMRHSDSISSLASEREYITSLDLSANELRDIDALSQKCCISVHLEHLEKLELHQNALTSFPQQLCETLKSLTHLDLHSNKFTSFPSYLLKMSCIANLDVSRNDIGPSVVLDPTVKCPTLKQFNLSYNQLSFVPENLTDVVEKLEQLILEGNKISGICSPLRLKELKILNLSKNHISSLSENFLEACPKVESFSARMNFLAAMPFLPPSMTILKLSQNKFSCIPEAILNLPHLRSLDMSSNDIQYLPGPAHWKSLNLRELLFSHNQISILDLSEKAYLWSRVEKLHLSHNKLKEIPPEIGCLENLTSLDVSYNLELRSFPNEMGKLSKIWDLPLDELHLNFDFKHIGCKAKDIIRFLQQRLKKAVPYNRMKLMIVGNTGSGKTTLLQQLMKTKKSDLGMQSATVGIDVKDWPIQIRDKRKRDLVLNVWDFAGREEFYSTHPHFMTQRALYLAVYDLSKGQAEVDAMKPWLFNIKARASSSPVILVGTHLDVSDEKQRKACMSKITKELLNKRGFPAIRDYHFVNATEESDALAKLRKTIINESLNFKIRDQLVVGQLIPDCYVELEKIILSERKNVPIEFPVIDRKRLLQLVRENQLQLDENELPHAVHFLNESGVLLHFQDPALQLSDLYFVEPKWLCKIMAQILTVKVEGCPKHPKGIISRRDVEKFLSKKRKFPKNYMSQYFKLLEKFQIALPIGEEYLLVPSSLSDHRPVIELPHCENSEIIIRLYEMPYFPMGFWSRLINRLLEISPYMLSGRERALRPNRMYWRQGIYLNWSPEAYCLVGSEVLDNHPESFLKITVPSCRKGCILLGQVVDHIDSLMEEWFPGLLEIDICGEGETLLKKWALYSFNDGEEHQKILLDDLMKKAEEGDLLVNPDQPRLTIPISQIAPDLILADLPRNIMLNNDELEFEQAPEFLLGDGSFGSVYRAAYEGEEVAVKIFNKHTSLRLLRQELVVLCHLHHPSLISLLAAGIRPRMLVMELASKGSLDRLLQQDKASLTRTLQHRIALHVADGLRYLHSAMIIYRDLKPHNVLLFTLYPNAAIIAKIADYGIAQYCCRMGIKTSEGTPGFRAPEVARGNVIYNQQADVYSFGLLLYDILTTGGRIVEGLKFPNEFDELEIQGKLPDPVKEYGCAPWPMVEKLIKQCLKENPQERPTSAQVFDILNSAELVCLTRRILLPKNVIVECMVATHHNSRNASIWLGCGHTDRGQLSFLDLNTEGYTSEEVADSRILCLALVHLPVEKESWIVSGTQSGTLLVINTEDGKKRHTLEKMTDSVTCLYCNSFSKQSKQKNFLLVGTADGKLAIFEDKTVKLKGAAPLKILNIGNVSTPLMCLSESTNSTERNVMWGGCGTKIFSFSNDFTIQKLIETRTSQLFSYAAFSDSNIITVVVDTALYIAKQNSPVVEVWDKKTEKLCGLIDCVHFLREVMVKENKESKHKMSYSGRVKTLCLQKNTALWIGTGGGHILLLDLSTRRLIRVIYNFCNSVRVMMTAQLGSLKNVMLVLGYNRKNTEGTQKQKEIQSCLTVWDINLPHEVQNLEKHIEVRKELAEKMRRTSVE
Method in brief: as §1

T1 sequence (Q5S007 whole entry G2019S): as the sequence (Q5S007 whole entry) above, with G2019S counted along it

Structure (SMILES) | IC50 (LRRK2 G2019S) [nM] | IC50 (LRRK2 WT; numeric bound) [nM] | IC50 (LRRK2 WT; class symbols) [nM]
Cn1cccc(-c2n[nH]c3ccc(N[C@H]4CCCc5cc(C#N)ccc54)cc23)c1=O (single isomer, unassigned) [Example 46, 5-((3-(1-Methyl-2-oxo-1,2-dihydropyridin-3-yl)-1H-indazol-5-yl)amino)-5,6,7,8-tetrahydronaphthalene-2-carbonitrile] | 100 to 1000 | > 10000 | 
N#Cc1nc2c(s1)[C@@H](Nc1ccc3[nH]nc(-c4cnco4)c3c1)CCC2 (single isomer, unassigned) [Example 47, enantiomer 1, 7-((3-(Oxazol-5-yl)-1H-indazol-5-yl)amino)-4,5,6,7-tetrahydrobenzo[d]thiazole-2-carbonitrile] | 100 to 1000 |  | 100 to 1000
Cc1c(C#N)ccc2c1CC[C@@H]2Oc1ccc2[nH]nc(-c3cnn(C(F)F)c3)c2c1 (single isomer, unassigned) [Example 50, enantiomer 2, 1-((3-(1-(Difluoromethyl)-1H-pyrazol-4-yl)-1H-indazol-5-yl)oxy)-4-methyl-2,3-dihydro-1H-indene-5-carbonitrile] | 100 to 1000 |  | < 100
N#Cc1ccc2c(c1)CCC[C@@H]2Nc1ccc2[nH]nc(C3=CCCCC3)c2c1 (single isomer, unassigned) [Example 54, 5-((3-(Cyclohex-1-en-1-yl)-1H-indazol-5-yl)amino)-5,6,7,8-tetrahydronaphthalene-2-carbonitrile] | 100 to 1000 |  | 1000 to 10000
N#Cc1ccc2c(c1)CCC[C@@H]2Nc1ccc2[nH]nc(-c3ccc(C(=O)O)cc3)c2c1 (single isomer, unassigned) [Example 55, 4-(5-((6-Cyano-1,2,3,4-tetrahydronaphthalen-1-yl)amino)-1H-indazol-3-yl)benzoic acid] | < 100 |  | < 100
Cn1cc2ccc(-c3n[nH]c4ccc(N[C@H]5CCCc6cc(C#N)ccc65)cc34)cc2n1 (single isomer, unassigned) [Example 56, 5-((2′-Methyl-1H,2′H-[3,6′-biindazol]-5-yl)amino)-5,6,7,8-tetrahydronaphthalene-2-carbonitrile] | 100 to 1000 |  | 1000 to 10000
CS(=O)(=O)c1cccc(-c2n[nH]c3ccc(N[C@H]4CCCc5cc(C#N)ccc54)cc23)c1 (single isomer, unassigned) [Example 57, 5-((3-(3-(Methylsulfonyl)phenyl)-1H-indazol-5-yl)amino)-5,6,7,8-tetrahydronaphthalene-2-carbonitrile] | < 100 |  | < 100
COc1cc(OC)cc(-c2n[nH]c3ccc(N[C@H]4CCCc5cc(C#N)ccc54)cc23)c1 (single isomer, unassigned) [Example 58, 5-((3-(3,5-Dimethoxyphenyl)-1H-indazol-5-yl)amino)-5,6,7,8-tetrahydronaphthalene-2-carbonitrile] | < 100 |  | 100 to 1000
Cc1ncc(-c2n[nH]c3ccc(N[C@H]4CCCc5cc(C#N)ccc54)cc23)o1 (single isomer, unassigned) [Example 60, 5-((3-(2-Methyloxazol-5-yl)-1H-indazol-5-yl)amino)-5,6,7,8-tetrahydronaphthalene-2-carbonitrile] | < 100 |  | < 100
N#Cc1ccc2c(c1)CCC[C@@H]2Nc1ccc2[nH]nc(-c3ccc4cc[nH]c4c3)c2c1 (single isomer, unassigned) [Example 61, 5-((3-(1H-Indol-6-yl)-1H-indazol-5-yl)amino)-5,6,7,8-tetrahydronaphthalene-2-carbonitrile] | < 100 |  | 100 to 1000
Cn1cc(-c2n[nH]c3ccc(N[C@H]4CCCc5cc(C#N)ccc54)cc23)ccc1=O (single isomer, unassigned) [Example 62, 5-((3-(1-Methyl-6-oxo-1,6-dihydropyridin-3-yl)-1H-indazol-5-yl)amino)-5,6,7,8-tetrahydronaphthalene-2-carbonitrile] | < 100 |  | < 100
N#Cc1ccc(-c2n[nH]c3ccc(N[C@H]4CCCc5cc(C#N)ccc54)cc23)cc1 (single isomer, unassigned) [Example 63, 5-((3-(4-Cyanophenyl)-1H-indazol-5-yl)amino)-5,6,7,8-tetrahydronaphthalene-2-carbonitrile] | < 100 |  | 100 to 1000
N#Cc1ccc2c(c1)CCC[C@@H]2Nc1ccc2[nH]nc(C3=CCCC3)c2c1 (single isomer, unassigned) [Example 65, 5-((3-(Cyclopent-1-en-1-yl)-1H-indazol-5-yl)amino)-5,6,7,8-tetrahydronaphthalene-2-carbonitrile] | 100 to 1000 |  | 1000 to 10000
N#Cc1ccc2c(c1)CCC[C@@H]2Nc1ccc2[nH]nc(-c3ccc(F)c(C(=O)O)c3)c2c1 (single isomer, unassigned) [Example 66, 5-(5-((6-Cyano-1,2,3,4-tetrahydronaphthalen-1-yl)amino)-1H-indazol-3-yl)-2-fluorobenzoic acid] | < 100 |  | 100 to 1000
N#Cc1ccc2c(c1)CCC[C@@H]2Nc1ccc2[nH]nc(-c3ccc4scnc4c3)c2c1 (single isomer, unassigned) [Example 67, 5-((3-(Benzo[d]thiazol-5-yl)-1H-indazol-5-yl)amino)-5,6,7,8-tetrahydronaphthalene-2-carbonitrile] | < 100 |  | < 100
N#Cc1ccc2c(c1)CCC[C@@H]2Nc1ccc2[nH]nc(-c3cccc(C(F)F)c3)c2c1 (single isomer, unassigned) [Example 68, 5-((3-(3-(Difluoromethyl)phenyl)-1H-indazol-5-yl)amino)-5,6,7,8-tetrahydronaphthalene-2-carbonitrile] | < 100 |  | < 100
CONC(=O)c1cccc(-c2n[nH]c3ccc(N[C@H]4CCCc5cc(C#N)ccc54)cc23)c1 (single isomer, unassigned) [Example 69, 3-(5-((6-Cyano-1,2,3,4-tetrahydronaphthalen-1-yl)amino)-1H-indazol-3-yl)-N-methoxybenzamide] | < 100 |  | < 100
N#Cc1ccc2c(c1)CCC[C@@H]2Nc1ccc2[nH]nc(-c3ccc([N+](=O)[O-])cc3)c2c1 (single isomer, unassigned) [Example 70, 5-((3-(4-Nitrophenyl)-1H-indazol-5-yl)amino)-5,6,7,8-tetrahydronaphthalene-2-carbonitrile] | < 100 |  | 100 to 1000

Results, then the compound that gave them:

IC50 (LRRK2 G2019S) [nM] | IC50 (LRRK2 WT; numeric bound) [nM] | IC50 (LRRK2 WT; class symbols) [nM] | Structure (SMILES)
< 100 |  | < 100 | N#Cc1nc2c(s1)[C@@H](Nc1ccc3[nH]nc(-c4cnco4)c3c1)CCC2 (single isomer, unassigned) [Example 47, enantiomer 2, 7-((3-(Oxazol-5-yl)-1H-indazol-5-yl)amino)-4,5,6,7-tetrahydrobenzo[d]thiazole-2-carbonitrile]
< 100 |  | < 100 | N#Cc1cnc2c(c1)C1CC1[C@@H]2Nc1ccc2[nH]nc(-c3cnco3)c2c1 (single isomer, unassigned) [Example 48, enantiomer 1, 6-((3-(Oxazol-5-yl)-1H-indazol-5-yl)amino)-4b,5,5a,6-tetrahydrocyclopropa[3,4]cyclopenta[1,2-b]pyridine-3-carbonitrile]
< 100 |  | < 100 | N#Cc1cnc2c(c1)CCC[C@@H]2Nc1ccc2[nH]nc(-c3cnn(C(F)F)c3)c2c1 (single isomer, unassigned) [Example 49, enantiomer 1, 8-((3-(1-(Difluoromethyl)-1H-pyrazol-4-yl)-1H-indazol-5-yl)amino)-5,6,7,8-tetrahydroquinoline-3-carbonitrile]
< 100 |  | 100 to 1000 | N#Cc1cnc2c(c1)CCC[C@@H]2Nc1ccc2[nH]nc(-c3cnn(C(F)F)c3)c2c1 (single isomer, unassigned) [Example 49, enantiomer 2, 8-((3-(1-(Difluoromethyl)-1H-pyrazol-4-yl)-1H-indazol-5-yl)amino)-5,6,7,8-tetrahydroquinoline-3-carbonitrile]
< 100 |  | < 100 | Cc1c(C#N)ccc2c1CC[C@@H]2Oc1ccc2[nH]nc(-c3cnn(C(F)F)c3)c2c1 (single isomer, unassigned) [Example 50, enantiomer 1, 1-((3-(1-(Difluoromethyl)-1H-pyrazol-4-yl)-1H-indazol-5-yl)oxy)-4-methyl-2,3-dihydro-1H-indene-5-carbonitrile]
< 100 |  | < 100 | N#Cc1ccc2c(c1F)CC[C@@H]2Oc1ccc2[nH]nc(-c3cnn(C(F)F)c3)c2c1 (single isomer, unassigned) [Example 51, enantiomer 1, 1-((3-(1-(Difluoromethyl)-1H-pyrazol-4-yl)-1H-indazol-5-yl)oxy)-4-fluoro-2,3-dihydro-1H-indene-5-carbonitrile]
< 100 |  | < 100 | Cc1c(C#N)ccc2c1CC[C@@H]2Nc1ccc2[nH]nc(-c3cnn(C(F)F)c3)c2c1 (single isomer, unassigned) [Example 52, enantiomer 1, 1-((3-(1-(Difluoromethyl)-1H-pyrazol-4-yl)-1H-indazol-5-yl)amino)-4-methyl-2,3-dihydro-1H-indene-5-carbonitrile]
< 100 |  | < 100 | N#Cc1ccc2c(c1F)CC[C@H]2Nc1ccc2[nH]nc(-c3cnn(C(F)F)c3)c2c1 (single isomer, unassigned) [Example 53, enantiomer 1, 1-((3-(1-(Difluoromethyl)-1H-pyrazol-4-yl)-1H-indazol-5-yl)amino)-4-fluoro-2,3-dihydro-1H-indene-5-carbonitrile]
< 100 |  | 100 to 1000 | N#Cc1ccc2c(c1F)CC[C@H]2Nc1ccc2[nH]nc(-c3cnn(C(F)F)c3)c2c1 (single isomer, unassigned) [Example 53, enantiomer 2, 1-((3-(1-(Difluoromethyl)-1H-pyrazol-4-yl)-1H-indazol-5-yl)amino)-4-fluoro-2,3-dihydro-1H-indene-5-carbonitrile]

Source: patent publication US20230148214A1, “INDAZOLES AND AZAINDAZOLES AS LRRK2 INHIBITORS” (ESCAPE Bio, Inc., priority 2020, published 2023)
